Measurements: patent US11324749B2, “Combination therapy for treatment of hematological diseases” (Incyte Corporation, priority 2018, dated 2022)

How the values were obtained:
[1] = target: human JAK1 (a.a. 837-1142) (Homo sapiens, UniProt P23458); assay: In vitro JAK kinase assay (HTRF), JAK1; format: biochemical; details: 1 mM ATP
Procedure: (§1) The catalytic activity of JAK1, JAK2, or JAK3 was assayed by measuring the phosphorylation of a biotinylated peptide. The phosphorylated peptide was detected by homogenous time resolved fluorescence (HTRF). […] Reactions are carried out at room temperature for 1 hour and then stopped with 20 μL 45 mM EDTA, 300 nM SA-APC, 6 nM Eu-Py20 in assay buffer (Perkin Elmer, Boston, Mass.). Binding to the Europium labeled antibody takes place for 40 minutes and HTRF signal was measured on a Fusion plate reader (Perkin Elmer, Boston, Mass.).

[2] = target: human JAK2 (a.a. 828-1132) (Homo sapiens (Human), UniProt O60674); assay: In vitro JAK kinase assay (HTRF), JAK2 versus JAK1; format: biochemical; details: IC50 ratio, 1 mM ATP
Chain of human JAK2 (a.a. 828-1132) (O60674 828-1132): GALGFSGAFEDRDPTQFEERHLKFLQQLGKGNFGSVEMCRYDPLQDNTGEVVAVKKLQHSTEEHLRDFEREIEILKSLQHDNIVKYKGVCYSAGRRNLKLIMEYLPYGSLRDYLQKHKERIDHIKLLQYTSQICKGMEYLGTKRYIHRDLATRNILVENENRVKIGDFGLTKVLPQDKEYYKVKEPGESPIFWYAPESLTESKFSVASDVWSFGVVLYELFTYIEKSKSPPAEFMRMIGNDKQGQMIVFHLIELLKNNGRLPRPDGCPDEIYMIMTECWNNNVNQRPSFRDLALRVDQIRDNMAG
Procedure: as §1

SMILES | IC50 [1] | JAK2/JAK1 [2]
N#CC[C@]1(n2cc(-c3ncnc4[nH]ccc34)cn2)C[C@H](N2CCC(Oc3cc(CN4CC(O)C4)cc(C(F)(F)F)n3)CC2)C1 [Compound 11, {trans-3-(4-{[4-[(3-hydroxyazetidin-1-yl)methyl]-6-(trifluoromethyl)pyridin-2-yl]oxy}piperidin-1-yl)-1-[4-(7H-pyrrolo[2,3-d]pyrimidin-4-yl)-1H-pyrazol-1-yl]cyclobutyl}acetonitrile] | < 0.01 µM | >10
C[C@@H](CO)NCc1cc(OC2CCN([C@H]3C[C@](CC#N)(n4cc(-c5ncnc6[nH]ccc56)cn4)C3)CC2)nc(C(F)(F)F)c1 [Compound 23, {trans-3-(4-{[4-({[(1S)-2-hydroxy-1-methylethyl]amino}methyl)-6-(trifluoromethyl)pyridin-2-yl]oxy}piperidin-1-yl)-1-[4-(7H-pyrrolo[2,3-d]pyrimidin-4-yl)-1H-pyrazol-1-yl]cyclobutyl}acetonitrile] | < 0.01 µM | >10
N#CCC(CN1CCN(C(=O)c2ccc(C#N)cc2F)CC1)n1cc(-c2ncnc3[nH]ccc23)cn1 (stereo not drawn) [Compound 8, 4-[(4-{3-cyano-2-[4-(7H-pyrrolo[2,3-d]pyrimidin-4-yl)-1H-pyrazol-1-yl]propyl}piperazin-1-yl)carbonyl]-3-fluorobenzonitrile] | < 0.01 µM | >10
N#CCC(C1CCN(c2nc3cccnc3o2)C1)n1cc(-c2ncnc3[nH]ccc23)cn1 (stereo not drawn) [Compound 7, 3-(1-[1,3]oxazolo[5,4-b]pyridin-2-ylpyrrolidin-3-yl)-3-[4-(7H-pyrrolo[2,3-d]pyrimidin-4-yl)-1H-pyrazol-1-yl]propanenitrile] | < 0.01 µM | >10
C[C@@H](O)CNCc1cc(OC2CCN([C@H]3C[C@](CC#N)(n4cc(-c5ncnc6[nH]ccc56)cn4)C3)CC2)nc(C(F)(F)F)c1 [Compound 24, {trans-3-(4-{[4-({[(2R)-2-hydroxypropyl]amino}methyl)-6-(trifluoromethyl)pyridin-2-yl]oxy}piperidin-1-yl)-1-[4-(7H-pyrrolo[2,3-d]pyrimidin-4-yl)-1H-pyrazol-1-yl]cyclobutyl}acetonitrile] | < 0.01 µM | >10
N#CC[C@]1(n2cc(-c3ncnc4[nH]ccc34)cn2)C[C@H](N2CCN(C(=O)c3ccnc(C(F)(F)F)n3)CC2)C1 [Compound 10, [trans-1-[4-(7H-pyrrolo[2,3-d]pyrimidin-4-yl)-1H-pyrazol-1-yl]-3-(4-{[2-(trifluoromethyl)pyrimidin-4-yl]carbonyl}piperazin-1-yl)cyclobutyl]acetonitrile] | < 0.01 µM | >10
C[C@H](NC(=O)c1cc(F)c(N2CC(CC#N)(n3cc(-c4ncnc5[nH]ccc45)cn3)C2)cc1F)C(F)(F)F [Compound 16, 4-{3-(cyanomethyl)-3-[4-(7H-pyrrolo[2,3-d]pyrimidin-4-yl)-1H-pyrazol-1-yl]azetidin-1-yl}-2,5-difluoro-N-[(1S)-2,2,2-trifluoro-1-methylethyl]benzamide] | < 0.01 µM | >10
N#CC[C@]1(n2cc(-c3ncnc4[nH]ccc34)cn2)C[C@H](N2CCC(Oc3cc(CN4CCC[C@H]4CO)cc(C(F)(F)F)n3)CC2)C1 [Compound 12, {trans-3-(4-{[4-{[(2S)-2-(hydroxymethyl)pyrrolidin-1-yl]methyl}-6-(trifluoromethyl)pyridin-2-yl]oxy}piperidin-1-yl)-1-[4-(7H-pyrrolo[2,3-d]pyrimidin-4-yl)-1H-pyrazol-1-yl]cyclobutyl}acetonitrile] | < 0.01 µM | >10
N#CCC(CN1CCN(C(=O)c2ccc(C#N)cc2F)CC1)n1ccc(-c2ncnc3[nH]ccc23)c1 (stereo not drawn) [Compound 9, 4-[(4-{3-cyano-2-[3-(7H-pyrrolo[2,3-d]pyrimidin-4-yl)-1H-pyrrol-1-yl]propyl}piperazin-1-yl)carbonyl]-3-fluorobenzonitrile] | < 0.01 µM | >10
N#CCC(C1CCN(c2cccc(Cl)n2)C1)n1cc(-c2ncnc3[nH]ccc23)cn1 (single isomer, unassigned) [Compound 6, 3-[1-(6-chloropyridin-2-yl)pyrrolidin-3-yl]-3-[4-(7H-pyrrolo[2,3-d]pyrimidin-4-yl)-1H-pyrazol-1-yl]propanenitrile] | < 0.01 µM | >10
N#CCC1(n2cc(-c3ncnc4[nH]ccc34)cn2)CN([C@H]2CC[C@@H](Oc3cc(CN4CC[C@@H](O)C4)cc(C(F)(F)F)n3)CC2)C1 [Compound 21, {1-(cis-4-{[4-{[(3R)-3-hydroxypyrrolidin-1-yl]methyl}-6-(trifluoromethyl)pyridin-2-yl]oxy}cyclohexyl)-3-[4-(7H-pyrrolo[2,3-d]pyrimidin-4-yl)-1H-pyrazol-1-yl]azetidin-3-yl}acetonitrile] | < 0.01 µM | >10
N#CCC1(n2cc(-c3ncnc4[nH]ccc34)cn2)CN(C2CCN(C(=O)Nc3ccc(F)cc3C(F)(F)F)CC2)C1 [Compound 2, 4-{3-(Cyanomethyl)-3-[4-(7H-pyrrolo[2,3-d]pyrimidin-4-yl)-1H-pyrazol-1-yl]azetidin-1-yl}-N-[4-fluoro-2-(trifluoromethyl)phenyl] piperidine-1-carboxamide] | < 0.01 µM | >10
N#CC[C@]1(n2cc(-c3ncnc4[nH]ccc34)cn2)C[C@H](N2CCC(Oc3cc(CN4CCC[C@@H]4CO)cc(C(F)(F)F)n3)CC2)C1 [Compound 13, {trans-3-(4-{[4-{[(2R)-2-(hydroxymethyl)pyrrolidin-1-yl]methyl}-6-(trifluoromethyl)pyridin-2-yl]oxy}piperidin-1-yl)-1-[4-(7H-pyrrolo[2,3-d]pyrimidin-4-yl)-1H-pyrazol-1-yl]cyclobutyl}acetonitrile] | < 0.01 µM | >10
N#CCC1(n2cc(-c3ncnc4[nH]ccc34)cn2)CN(C2CCN(C(=O)c3ccnc(C(F)(F)F)n3)CC2)C1 [Compound 3, [3-[4-(7H-pyrrolo[2,3-d]pyrimidin-4-yl)-1H-pyrazol-1-yl]-1-(1-{[2-(trifluoromethyl)pyrimidin-4-yl]carbonyl}piperidin-4-yl)azetidin-3-yl]acetonitrile] | < 0.01 µM | >10
N#CCC1(n2cc(-c3ncnc4[nH]ccc34)cn2)CN([C@H]2CC[C@@H](Oc3cc(CCO)nc(C(F)(F)F)n3)CC2)C1 [Compound 18, {1-(cis-4-{[6-(2-hydroxyethyl)-2-(trifluoromethyl)pyrimidin-4-yl]oxy}cyclohexyl)-3-[4-(7H-pyrrolo[2,3-d]pyrimidin-4-yl)-1H-pyrazol-1-yl]azetidin-3-yl}acetonitrile] | < 0.01 µM | >10
CCNCc1cc(O[C@H]2CC[C@@H](N3CC(CC#N)(n4cc(-c5ncnc6[nH]ccc56)cn4)C3)CC2)nc(C(F)(F)F)c1 [Compound 19, {1-(cis--4{[4-[(ethylamino)methyl]-6-(trifluoromethyl)pyridin-2-yl]oxy}cyclohexyl)-3-[4-(7H-pyrrolo[2,3-d]pyrimidin-4-yl)-1H-pyrazol-1-yl]azetidin-3-yl}acetonitrile] | < 0.01 µM | >10
C[C@H](O)CNCc1cc(OC2CCN([C@H]3C[C@](CC#N)(n4cc(-c5ncnc6[nH]ccc56)cn4)C3)CC2)nc(C(F)(F)F)c1 [Compound 25, {trans-3-(4-{[4-({[(2S)-2-hydroxypropyl]amino}methyl)-6-(trifluoromethyl)pyridin-2-yl]oxy}piperidin-1-yl)-1-[4-(7H-pyrrolo[2,3-d]pyrimidin-4-yl)-1H-pyrazol-1-yl]cyclobutyl}acetonitrile] | < 0.01 µM | >10
N#CC[C@]1(n2cc(-c3ncnc4[nH]ccc34)cn2)C[C@H](N2CCC(Oc3cc(CCO)cc(C(F)(F)F)n3)CC2)C1 [Compound 26, {trans-3-(4-{[4-(2-hydroxyethyl)-6-(trifluoromethyl)pyridin-2-yl]oxy}piperidin-1-yl)-1-[4-(7H-pyrrolo[2,3-d]pyrimidin-4-yl)-1H-pyrazol-1-yl]cyclobutyl}acetonitrile] | < 0.01 µM | >10
N#CCC1(n2cc(-c3ncnc4[nH]ccc34)cn2)CN([C@H]2CC[C@@H](Oc3cc(CN4CC[C@H](O)C4)cc(C(F)(F)F)n3)CC2)C1 [Compound 22, {1-(cis-4-{[4-{[(3S)-3-hydroxypyrrolidin-1-yl]methyl}-6-(trifluoromethyl)pyridin-2-yl]oxy}cyclohexyl)-3-[4-(7H-pyrrolo[2,3-d]pyrimidin-4-yl)-1H-pyrazol-1-yl]azetidin-3-yl}acetonitrile] | < 0.01 µM | >10
CC(C)(O)c1cc(O[C@H]2CC[C@@H](N3CC(CC#N)(n4cc(-c5ncnc6[nH]ccc56)cn4)C3)CC2)nc(C(F)(F)F)c1 [Compound 20, {1-(cis-4-{[4-(1-hydroxy-1-methylethyl)-6-(trifluoromethyl)pyridin-2-yl]oxy}cyclohexyl)-3-[4-(7H-pyrrolo[2,3-d]pyrimidin-4-yl)-1H-pyrazol-1-yl]azetidin-3-yl}acetonitrile] | < 0.01 µM | >10
C[C@@H](O)c1nc2cnc3ccsc3c2n1[C@H]1CC[C@H](CC#N)OC1 [Compound 5, ((2R,5S)-5-{2-[(1R)-1-hydroxyethyl]-1H-imidazo[4,5-d]thieno[3,2-b]pyridin-1-yl}tetrahydro-2H-pyran-2-yl)acetonitrile] | < 0.1 µM | >10
